From patent US11149019B2, “Phenylpyridine derivative and pharmaceutical composition comprising the same” (Daewoong Pharmaceutical Co., Ltd., priority 2017, dated 2021)

How the values were obtained:
ITK = biological target: T1, ITK (Homo sapiens, UniProt Q08881); assay: ADP-Glo + ITK Kinase enzyme system kit, inhibitory activity against ITK; assay type: biochemical; settings: ITK enzyme 0.4 ng/ul, ATP final concentration of 25 ul, 30° C. for 1 hour, luminescence, duplicate
T1 construct: purchased Promega Corporation
T1 sequence (Q08881 1-620): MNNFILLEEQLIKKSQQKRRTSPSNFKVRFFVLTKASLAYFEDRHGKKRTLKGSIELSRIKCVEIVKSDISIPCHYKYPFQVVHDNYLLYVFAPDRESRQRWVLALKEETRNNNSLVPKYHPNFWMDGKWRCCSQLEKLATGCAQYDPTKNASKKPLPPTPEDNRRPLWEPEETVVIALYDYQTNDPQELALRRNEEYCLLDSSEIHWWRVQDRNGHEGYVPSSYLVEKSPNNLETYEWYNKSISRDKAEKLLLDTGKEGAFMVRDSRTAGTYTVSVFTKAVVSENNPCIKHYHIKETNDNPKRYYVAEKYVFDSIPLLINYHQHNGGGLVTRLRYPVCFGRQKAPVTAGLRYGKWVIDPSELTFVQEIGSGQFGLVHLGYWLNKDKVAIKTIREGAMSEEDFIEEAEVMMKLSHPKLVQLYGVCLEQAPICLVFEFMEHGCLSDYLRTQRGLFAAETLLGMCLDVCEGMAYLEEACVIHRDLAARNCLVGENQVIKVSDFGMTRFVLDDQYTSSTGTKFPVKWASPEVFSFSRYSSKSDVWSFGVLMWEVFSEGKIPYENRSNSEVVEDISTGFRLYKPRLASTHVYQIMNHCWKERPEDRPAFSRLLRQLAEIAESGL
Experimental: (§1) Inhibitory activities against BTK and ITK were measured for the compounds prepared in the above Examples as follows.
The inhibitory activity against ITK was evaluated using ‘ADP-Glo™+ITK Kinase enzyme system’ kit (Promega Corporation). In a white 96-well plate, 10 ul of ITK enzyme prepared so as to have a final concentration of 0.4 ng/ul was mixed with 5 ul of compounds having a final concentration of 1 uM in the case of evaluating a single concentration of compound and a concentration of 1000, 300, 100, 30, 10, 3, 1, 0.3, 0.1 and 0.03 nM in the case of IC50 evaluation, and then reacted at room temperature for 15 minutes. To the plate on which reactions were completed, 5 ul of substrate and 5 ul of ATP prepared so as to have a final concentration of […] added and then allowed to react at 30° C. for 1 hour. All wells of the plate were treated with 25 ul of ADP-Glo™ reagent and then allowed to react at 30° C. for 40 minutes. After that, all wells were treated with 50 ul of kinase detection buffer, and then allowed to react at 30° C. for 30 minutes under light shielding conditions. For the plate on which all reactions were completed, luminescence was measured and the results were calculated. Evaluation was carried out in duplicate, and negative control and positive control were calculated depending on whether or not the enzyme was added without treatment of the compound. The IC50 was calculated based on the calculated values.

BTK = biological target: T2, BTK (Homo sapiens, UniProt Q06187); assay: ADP-Glo + BTK Kinase enzyme system kit, inhibitory activity against BTK; assay type: biochemical; settings: BTK enzyme 1 ng/ul, ATP 10 μM, 30° C. for 1 hour, luminescence, duplicate
T2 construct: purchased Promega Corporation
T2 sequence (Q06187 whole entry): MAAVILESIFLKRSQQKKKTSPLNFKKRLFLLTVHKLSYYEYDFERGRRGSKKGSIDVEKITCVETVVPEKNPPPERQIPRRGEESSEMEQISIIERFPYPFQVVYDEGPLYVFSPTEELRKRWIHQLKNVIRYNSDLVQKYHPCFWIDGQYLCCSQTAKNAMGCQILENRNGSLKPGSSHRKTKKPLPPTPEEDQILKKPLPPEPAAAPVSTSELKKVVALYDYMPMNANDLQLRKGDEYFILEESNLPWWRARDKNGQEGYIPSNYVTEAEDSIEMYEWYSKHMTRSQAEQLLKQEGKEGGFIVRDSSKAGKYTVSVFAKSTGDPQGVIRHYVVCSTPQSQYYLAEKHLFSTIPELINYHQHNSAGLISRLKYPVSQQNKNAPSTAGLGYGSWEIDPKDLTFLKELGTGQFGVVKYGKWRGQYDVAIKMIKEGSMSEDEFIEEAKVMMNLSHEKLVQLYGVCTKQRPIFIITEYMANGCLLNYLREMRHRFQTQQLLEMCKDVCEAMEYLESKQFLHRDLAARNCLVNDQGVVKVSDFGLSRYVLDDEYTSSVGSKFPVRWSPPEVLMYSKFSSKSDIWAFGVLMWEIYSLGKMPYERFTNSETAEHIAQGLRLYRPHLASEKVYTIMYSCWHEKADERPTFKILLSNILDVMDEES
Experimental: as §1
The inhibitory activities against BTK were evaluated using ‘ADP-Glo™+BTK Kinase enzyme system’ kit (Promega Corporation). In a white 96-well plate, 10 ul of BTK enzyme prepared so as to have a final concentration of 1 ng/ul was mixed with 5 μl of compounds having a final concentration of […] the case of evaluating a single concentration of compound and a concentration of 1000, 300, 100, 30, 10, 3, 1, 0.3, 0.1 and 0.03 nM in the case of IC50 evaluation, and then reacted at room temperature for 15 minutes. 5 ul of substrate and 5 ul of ATP prepared so as to have a final concentration of 10 μM were added to the plate on which reactions were completed, and then allowed to react at 30° C. for 1 hour. All wells of the plate were treated with 25 ul of ADP-Glo™ reagent and allowed to react at 30° C. for 40 minutes. After that, all wells were treated with 50 ul of kinase detection buffer, and then reacted at 30° C. for 30 minutes under light shielding conditions. For the plate on which all reactions were completed, luminescence was measured and the results were calculated. Evaluation was carried out in duplicate, and negative control and positive control were calculated depending on whether or not the enzyme was added without treatment of the compound. The IC50 was calculated based on the calculated values.

Compound | IC50 (ITK) | IC50 (BTK)
C=CC(=O)Nc1cccc(-c2cccc(Nc3cc(C)[nH]n3)n2)c1 [Compound 12] | 995 nM | 7.8 nM
C=CC(=O)Nc1cccc(-c2cccc(Nc3cc(C4CCCC4)[nH]n3)n2)c1 [Compound 13, N-(3-(6-((5-cyclopentyl-1H-pyrazol-3-yl)amino)pyridin-2-yl)phenyl)acrylamide] | 266 nM | 138 nM
C=CC(=O)Nc1cccc(-c2cccc(Nc3cc[nH]n3)n2)c1 [Compound 15, N-(3-(6-(1H-pyrazol-3-ylamino)pyridin-2-yl)phenyl)acrylamide] | > 500 nM | 18 nM
C=CC(=O)Nc1cccc(-c2cc(C)cc(Nc3cc(C)[nH]n3)n2)c1 [Compound 16, N-(3-(4-methyl-6-(5-methyl-1H-pyrazol-3-ylamino)pyridin-2-yl)phenyl)acrylamide] | 192 nM | 6.1 nM
C=CC(=O)Nc1cccc(-c2cc(C(F)(F)F)cc(Nc3cc(C)[nH]n3)n2)c1 [Compound 17] | 131 nM | 11.1 nM
C=CC(=O)Nc1cccc(-c2cc(CNC(C)C(C)(C)C)cc(Nc3cc(C)[nH]n3)n2)c1 (stereo not shown) [Compound 19] | > 500 nM | 74.7 nM
C=CC(=O)Nc1cccc(-c2cc(C(=O)NC(C)C(C)(C)C)cc(Nc3cc(C)[nH]n3)n2)c1 (stereo not shown) [Compound 20, 2-(3-acrylamidophenyl)-N-(3,3-dimethylbutan-2-yl)-6-(5-methyl-1H-pyrazol-3-ylamino)isonicotinamide] | 254 nM | 28.1 nM
C=CC(=O)Nc1cccc(-c2cc(C(=O)N(C)C)cc(Nc3cc(C)[nH]n3)n2)c1 [Compound 21, 2-(3-acrylamidophenyl)-N,N-dimethyl-6-((5-methyl-1H-pyrazol-3-yl)amino)isonicotinamide] | > 500 nM | 52.6 nM
C=CC(=O)Nc1cccc(-c2cc(CN3CCOCC3)cc(Nc3cc(C)[nH]n3)n2)c1 [Compound 22, N-(3-(6-((5-methyl-1H-pyrazol-3-yl)amino)-4-(morpholinomethyl)pyridin-2-yl)phenyl)acrylamide] | 77.8 nM | 6.1 nM
C=CC(=O)Nc1cccc(-c2cc(C)cc(Nc3cc(C4CC4)[nH]n3)n2)c1 [Compound 25, N-(3-(6-((5-cyclopropyl-1H-pyrazol-3-yl)amino)-4-methylpyridin-2-yl)phenyl)acrylamide] | 59.3 nM | 8.6 nM
C=CC(=O)Nc1cccc(-c2cc(C)cc(Nc3ncc(C)s3)n2)c1 [Compound 26, N-(3-(4-methyl-6-((5-methylthiazol-2-yl)amino)pyridin-2-yl)phenyl)acrylamide] | 76.4 nM | 10.5 nM
C=CC(=O)Nc1cccc(-c2cc(CN3CCOCC3)cc(Nc3cc(C4CC4)[nH]n3)n2)c1 [Compound 27, N-(3-(6-((5-cyclopropyl-1H-pyrazol-3-yl)amino)-4-(morpholinomethyl)pyridin-2-yl)phenyl)acrylamide] | 36.9 nM | 68.7 nM
C=CC(=O)Nc1cccc(-c2cc(CN3CCN(C(=O)C(C)C)CC3)cc(Nc3ncc(C)s3)n2)c1 [Compound 62, N (3(4((4-isobutyrylpiperazin-1-yl)methyl)-6-(5-methylthiazol-2-ylamino)pyridin-2-yl)phenyl)acrylamide] | 8.1 nM | –

Other lines, results leading:

IC50 (ITK) | IC50 (BTK) | Compound
289 nM | > 1000 nM | C=CC(=O)Nc1ccc(-c2cc(Cc3ccccc3)cc(Nc3cc(C)[nH]n3)n2)cc1 [Compound 1, N-(4-(4-benzyl-6-(5-methyl-1H-pyrazol-3-ylamino)pyridin-2-yl)phenyl)acrylamide]
88.2 nM | 24.1 nM | C=CC(=O)Nc1cccc(-c2cc(Cc3ccccc3)cc(Nc3cc(C)[nH]n3)n2)c1 [Compound 2, N-(3-(4-benzyl-6-(5-methyl-1H-pyrazol-3-ylamino)pyridin-2-yl)phenyl)acrylamide]
23.5 nM | 45.9 nM | C#CC(=O)Nc1ccc(-c2cc(Cc3ccccc3)cc(Nc3cc(C)[nH]n3)n2)cc1 [Compound 3, N-(4-(4-benzyl-6-((5-methyl-1H-pyrazol-3-yl)amino)pyridin-2-yl)phenyl)propiolamide]
91.4 nM | 634 nM | C=CC(=O)Nc1cccc(-c2cc(Cc3ccccc3)cc(Nc3cc(C4CCCC4)[nH]n3)n2)c1 [Compound 4, N-(3-(4-benzyl-6-(5-cyclopentyl-1H-pyrazol-3-ylamino)pyridin-2-yl)phenyl)acrylamide]
317 nM | 777 nM | C=CC(=O)Nc1cccc(-c2cc(Cc3ccccc3)cc(Nc3cc(-c4ccccc4)[nH]n3)n2)c1 [Compound 5, N-(3-(4-benzyl-6-((5-phenyl-1H-pyrazol-3-yl)amino)pyridin-2-yl)phenyl)acrylamide]
> 500 nM | > 1000 nM | C#CC(=O)Nc1cccc(-c2cc(Cc3ccccc3)cc(Nc3cc(C)[nH]n3)n2)c1 [Compound 6, N-(3-(4-benzyl-6-((5-methyl-1H-pyrazol-3-yl)amino)pyridin-2-yl)phenyl)propiolamide]
> 500 nM | 123 nM | C=CC(=O)Nc1cccc(-c2cc(Cc3ccccc3)cc(Nc3cc(-c4ccc(Oc5ccccc5)cc4)[nH]n3)n2)c1 [Compound 7, N-(3-(4-benzyl-6-((5-(4-phenoxyphenyl)-1H-pyrazol-3-yl)amino)pyridin-2-yl)phenyl)acrylamide]
572 nM | 308 nM | C=CC(=O)Nc1cccc(-c2cc(Cc3ccccc3)cc(Nc3cc(Cc4ccc(C)cc4)[nH]n3)n2)c1 [Compound 8]
> 1000 nM | > 1000 nM | C=CC(=O)Nc1cccc(-c2cc(Cc3ccccc3)cc(Nc3cc(C(C)c4ccc(C)cc4)[nH]n3)n2)c1 (stereo not shown) [Compound 9]
502 nM | 65.1 nM | C=CC(=O)Nc1cccc(-c2cc(Cc3ccccc3)cc(Nc3cc(CCc4ccccc4)[nH]n3)n2)c1 [Compound 10, N-(3-(4-benzyl-6-((5-phenethyl-1H-pyrazol-3-yl)amino)pyridin-2-yl)phenyl)acrylamide]
134 nM | 17.5 nM | C=CC(=O)Nc1cccc(-c2cc(Cc3ccccc3)cc(Nc3cc[nH]n3)n2)c1 [Compound 11]
399 nM | 350 nM | C=CC(=O)Nc1cccc(-c2cccc(Nc3cc(-c4ccccc4)[nH]n3)n2)c1 [Compound 14, N-(3-(6-(5-phenyl-1H-pyrazol-3-ylamino)pyridin-2-yl)phenyl)acrylamide]
> 1000 nM | 28.7 nM | C=CC(=O)Nc1cccc(-c2cc(C)cc(Nc3ccccn3)n2)c1 [Compound 18, N-(3-(4-methyl-6-(pyridin-2-ylamino)pyridin-2-yl)phenyl)acrylamide]
128 nM | 13.1 nM | C=CC(=O)Nc1cccc(-c2cc(-c3ccccc3)cc(Nc3cc(C)[nH]n3)n2)c1 [Compound 23, N-(3-(6-(5-methyl-1H-pyrazol-3-ylamino)-4-phenylpyridin-2-yl)phenyl)acrylamide]
159 nM | 10.9 nM | C=CC(=O)Nc1cccc(-c2cc(C)cc(Nc3cc(CC)[nH]n3)n2)c1 [Compound 24, N-(3-(6-(5-ethyl-1H-pyrazol-3-ylamino)-4-methylpyridin-2-yl)phenyl)acrylamide]
